Measured values: US11028054B2, “1, 4, 6-trisubstituted-2-alkyl-1H-benzo[d]imidazole derivatives as dihydroorotate oxygenase inhibitors” (Merck Patent GmbH, priority 2017, dated 2021)
pIC50: −log10 of the molar value.

Target: DHODH (Homo sapiens (Human), UniProt Q02127)
Test: Measurement of DHODH inhibitory enzyme activity (coupled DCIP reduction assay)
Type: biochemical
Text: Measurement of DHODH Inhibitory Enzyme Activity (In Vitro Assays)
The DHODH activity assay is a coupled enzyme assay in which oxidation of DHO and subsequent reduction of ubiquinone are stoichiometrically equivalent to the reduction of DCIP ([…]). The reduction of DCIP is accompanied by a loss of absorbance at 610 nm.
Reagents used: L-Dihydroorotic acid, Sigma, D7128, 2,6-Dichloroindophenol sodium salt hydrate, sigma, D1878 Dimethyl sulfoxide (DMSO), spectroscopic grade purchased from Spectrochem, cat no. 0704209, B. no.—3183650 Decylubiquinone, Sigma, D7911.
Preparation of Solutions/Reagents:
Buffer Preparation: 50 mM tris HCl, 150 mM KCl, and pH 8.0, 0.8% triton.
L-Dihydroorotic acid stock solution of 20 mM in buffer.
2, 6-Dichloroindophenol Sodium salt hydrate stock solution of 20 mM in buffer.
Decylubiquinone stock solution of 20 mM in buffer.
5 μL of Dimethyl sulfoxide or a compound of formula (I) in DMSO solution was added to the wells of a 96 well plate. Compounds of formula (I) were measured at 10 μM.
Protein along with buffer was added, so that the total volume including the DMSO was 87 μL. Compound and protein were incubated for half an hour at room temperature after mixing. 5 μL of 20 mM solution of L-Dihydroorotic acid, 5 μL of 2 mM solution of Decylubiquinone and 3 μL of 2 mM solution of 2, 6-Dichloroindophenol sodium salt hydrate were added to the above solution (total assay volume 100 μL). The mixture was stirred for 2 min and absorbance was recorded at every 10 min at 610 nanometers.
Percent inhibition is calculated as follows 100*{(Abs610 for reaction containing compound)−(Abs610 for positive control) (Abs610 for no enzyme reaction)−(Abs610 for positive control) Reaction containing compound has compound, buffer, enzyme and substrates Positive control contains DMSO, buffer, enzyme and substrates No Enzyme reaction contains DMSO, buffer and substrates IC50 determination: A 2 mM DMSO stock solution of the selected 1, 4, 6-trisubstituted-2-alkyl-1H-benzo[d]imidazole derivatives of formula (I) of the present invention to be examined was prepared. Subsequent ⅓rd dilutions were made as follows:
5 μL of each stock of compound of formula (I) (solution indicated in column 4 of table) was used for each 100 μL assay. Therefore, 5 μL of the 2 mM stock provided 100 μL of 100 μM solution of compound of formula (I), when made up with buffer, protein and substrate. See also: Ulrich et al. (2001) Eur. J. Biochem. 268, 1861-1868.

Sequence of DHODH (Q02127 whole entry): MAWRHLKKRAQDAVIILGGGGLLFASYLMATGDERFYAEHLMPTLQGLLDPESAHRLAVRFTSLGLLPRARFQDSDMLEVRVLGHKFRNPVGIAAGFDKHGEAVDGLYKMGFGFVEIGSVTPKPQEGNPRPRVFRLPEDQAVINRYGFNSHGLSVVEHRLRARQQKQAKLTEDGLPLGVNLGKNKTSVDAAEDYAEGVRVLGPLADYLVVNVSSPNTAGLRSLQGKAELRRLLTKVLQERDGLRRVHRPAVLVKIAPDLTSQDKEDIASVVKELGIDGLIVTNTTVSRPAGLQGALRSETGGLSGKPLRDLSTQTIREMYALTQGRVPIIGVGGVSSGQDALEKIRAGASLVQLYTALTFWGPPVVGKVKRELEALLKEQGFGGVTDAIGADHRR

Cc1nc2c(C(=O)O)cc(-c3ccc(-c4cccc(F)c4F)cc3)cc2[nH]1 [Example 4, 6-(2',3'-difluoro-[1,1'-biphenyl]-4-yl)-2-methyl-1H-benzo[d]imidazole-4-carboxylic acid]
pIC50: < 7.00

Cc1nc2c(C(=O)O)cc(-c3ccc(-c4cccc(OCc5ccccc5)c4)cc3)cc2[nH]1 [Example 15, 6-(3'-(benzyloxy)-[1,1'-biphenyl]-4-yl)-2-methyl-1H-benzo[d]imidazole-4-carboxylic acid]
pIC50: 7.00 to 8.00

Cc1nc2c(C(=O)O)cc(-c3ccc(-c4cccc(O)c4)cc3)cc2[nH]1 [Example 16, 6-(3'-hydroxy-[1,1'-biphenyl]-4-yl)-2-methyl-1H-benzo[d]imidazole-4-carboxylic acid]
pIC50: 7.00 to 8.00

Cc1nc2c(C(=O)O)cc(-c3ccc(-c4ccccc4OCc4ccccc4)cc3)cc2[nH]1 [Example 17, 6-(2'-(benzyloxy)-[1,1'-biphenyl]-4-yl)-2-methyl-1H-benzo[d]imidazole-4-carboxylic acid]
pIC50: 7.00 to 8.00

Cc1nc2c(C(=O)O)cc(-c3ccc(-c4ccc(O)cc4)cc3)cc2[nH]1 [Example 20, 6-(4'-hydroxy-[1,1'-biphenyl]-4-yl)-2-methyl-1H-benzo[d]imidazole-4-carboxylic acid]
pIC50: 7.00 to 8.00

COc1cccc(-c2ccc(-c3cc(C(=O)O)c4nc(C)[nH]c4c3)cc2)c1F [Example 21, 6-(2'-fluoro-3'-methoxy-[1,1'-biphenyl]-4-yl)-2-methyl-1H-benzo[d]imidazole-4-carboxylic acid]
pIC50: 7.00 to 8.00

Cc1nc2c(C(=O)O)cc(-c3ccc(-c4ccccc4O)cc3)cc2[nH]1 [Example 23, 6-(2'-hydroxy-[1,1'-biphenyl]-4-yl)-2-methyl-1H-benzo[d]imidazole-4-carboxylic acid]
pIC50: 7.00 to 8.00

Cc1nc2c(C(=O)O)cc(-c3ccc(-c4cccc(CN5CCS(=O)(=O)CC5)c4)cc3)cc2[nH]1 [Example 36, 6-(3'-((1,1-dioxidothiomorpholino)methyl)-[1,1'-biphenyl]-4-yl)-2-methyl-1H-benzo[d]imidazole-4-carboxylic acid.2,2,2-trifluoroacetic acid]
pIC50: 7.00 to 8.00

Cc1nc2c(C(=O)O)cc(-c3ccc(-c4cccc(CNC(C)(C)C)c4)cc3)cc2[nH]1 [Example 39, 6-(3'-((tert-butylamino)methyl)-[1,1'-biphenyl]-4-yl)-2-methyl-1H-benzo[d]imidazole-4-carboxylic acid.2,2,2-trifluoroacetic acid]
pIC50: 7.00 to 8.00

Cc1nc2c(C(=O)O)cc(-c3ccc(-c4ccccc4CN4CCCCC4)cc3)cc2[nH]1 [Example 42, 2-methyl-6-(2'-(piperidin-1-ylmethyl)-[1,1'-biphenyl]-4-yl)-1H-benzo[d]imidazole-4-carboxylic acid.2,2,2-trifluoroacetic acid]
pIC50: 7.00 to 8.00

Cc1nc2c(C(=O)O)cc(-c3ccc(-c4ccccc4CN4CCOCC4)cc3)cc2[nH]1 [Example 45, 2-methyl-6-(2'-(morpholinomethyl)-[1,1'-biphenyl]-4-yl)-1H-benzo[d]imidazole-4-carboxylic acid.2,2,2-trifluoroacetic acid]
pIC50: 7.00 to 8.00

Cc1nc2c(C(=O)O)cc(-c3ccc(-c4ccccc4CN4CCCC4)cc3)cc2[nH]1 [Example 46, 2-methyl-6-(2'-(pyrrolidin-1-ylmethyl)-[1,1'-biphenyl]-4-yl)-1H-benzo[d]imidazole-4-carboxylic acid.2,2,2-trifluoroacetic acid]
pIC50: 8.00 to 9.00

Cc1nc2c(C(=O)O)cc(-c3c(F)c(F)c(-c4ccccc4)c(F)c3F)cc2[nH]1 [Example 52, 2-methyl-6-(2,3,5,6-tetrafluoro-[1,1'-biphenyl]-4-yl)-1H-benzo[d]imidazole-4-carboxylic acid]
pIC50: 8.00 to 9.00

Cc1nc2c(C(=O)O)cc(-c3c(F)c(F)c(-c4ccccc4CN4CCCCC4)c(F)c3F)cc2[nH]1 [Example 53, 2-methyl-6-(2,3,5,6-tetrafluoro-2'-(piperidin-1-ylmethyl)-[1,1'-biphenyl]-4-yl)-1H-benzo[d]imidazole-4-carboxylic acid.2,2,2-trifluoroacetic acid]
pIC50: 8.00 to 9.00

Cc1nc2c(C(=O)O)cc(-c3c(F)c(F)c(-c4cccc(CN5CCCCC5)c4)c(F)c3F)cc2[nH]1 [Example 56, 2-methyl-6-(2,3,5,6-tetrafluoro-3'-(piperidin-1-ylmethyl)-[1,1'-biphenyl]-4-yl)-1H-benzo[d]imidazole-4-carboxylic acid.2,2,2-trifluoroacetic acid]
pIC50: 8.00 to 9.00

Cc1nc2c(C(=O)O)cc(-c3c(F)c(F)c(-c4cccc(CO)c4)c(F)c3F)cc2[nH]1 [Example 57, 2-methyl-6-(2,3,5,6-tetrafluoro-3'-(hydroxymethyl)-[1,1'-biphenyl]-4-yl)-1H-benzo[d]imidazole-4-carboxylic acid.2,2,2-trifluoroacetic acid]
pIC50: 8.00 to 9.00

Cc1nc2c(C(=O)O)cc(-c3c(F)c(F)c(-c4cccc(CNC(C)C)c4)c(F)c3F)cc2[nH]1 [Example 59, 2-methyl-6-(2,3,5,6-tetrafluoro-3'-((isopropylamino)methyl)-[1,1'-biphenyl]-4-yl)-1H-benzo[d]imidazole-4-carboxylic acid.2,2,2-trifluoroacetic acid]
pIC50: 7.00 to 8.00

Cc1nc2c(C(=O)O)cc(-c3c(F)c(F)c(-c4cccc(CNC5CC5)c4)c(F)c3F)cc2[nH]1 [Example 60, 6-(3'-((cyclopropylamino)methyl)-2,3,5,6-tetrafluoro-[1,1'-biphenyl]-4-yl)-2-methyl-1H-benzo[d]imidazole-4-carboxylic acid.2,2,2-trifluoroacetic acid]
pIC50: 8.00 to 9.00

Cc1nc2c(C(=O)O)cc(-c3c(F)c(F)c(-c4ccc(CN5CCCCC5)cc4)c(F)c3F)cc2[nH]1 [Example 61, 2-methyl-6-(2,3,5,6-tetrafluoro-4'-(piperidin-1-ylmethyl)-[1,1'-biphenyl]-4-yl)-1H-benzo[d]imidazole-4-carboxylic acid.2,2,2-trifluoroacetic acid]
pIC50: 8.00 to 9.00

Cc1nc2c(C(=O)O)cc(-c3c(F)c(F)c(-c4ccc(CN5CCCC5)cc4)c(F)c3F)cc2[nH]1 [Example 62, 2-methyl-6-(2,3,5,6-tetrafluoro-4'-(pyrrolidin-1-ylmethyl)-[1,1'-biphenyl]-4-yl)-1H-benzo[d]imidazole-4-carboxylic acid.2,2,2-trifluoroacetic acid]
pIC50: 7.00 to 8.00

Cc1nc2c(C(=O)O)cc(-c3c(F)c(F)c(-c4ccc(CN5CCCC(F)(F)C5)cc4)c(F)c3F)cc2[nH]1 [Example 64, 6-(4'-((3,3-difluoropiperidin-1-yl)methyl)-2,3,5,6-tetrafluoro-[1,1'-biphenyl]-4-yl)-2-methyl-1H-benzo[d]imidazole-4-carboxylic acid.2,2,2-trifluoroacetic acid]
pIC50: 8.00 to 9.00

Cc1nc2c(C(=O)O)cc(-c3c(F)c(F)c(-c4ccc(CN5CCS(=O)(=O)CC5)cc4)c(F)c3F)cc2[nH]1 [Example 65, 6-(4'-((1,1-dioxidothiomorpholino)methyl)-2,3,5,6-tetrafluoro-[1,1'-biphenyl]-4-yl)-2-methyl-1H-benzo[d]imidazole-4-carboxylic acid.2,2,2-trifluoroacetic acid]
pIC50: 8.00 to 9.00

Cc1nc2c(C(=O)O)cc(-c3c(F)c(F)c(-n4c(C)ccc4C)c(F)c3F)cc2[nH]1 [Example 67, 6-(4-(2,5-dimethyl-1H-pyrrol-1-yl)-2,3,5,6-tetrafluorophenyl)-2-methyl-1H-benzo[d]imidazole-4-carboxylic acid]
pIC50: 8.00 to 9.00

Cc1nc2c(C(=O)O)cc(-c3ccc(OCc4ccccc4)cc3)cc2[nH]1 [Example 69, 6-(4-(benzyloxy)phenyl)-2-methyl-1H-benzo[d]imidazole-4-carboxylic acid]
pIC50: 8.00 to 9.00

Cc1nc2c(C(=O)O)cc(-c3ccc(-c4cccc(CO)c4)cc3)cc2[nH]1 [Example 90, 6-(3'-(hydroxymethyl)-[1,1'-biphenyl]-4-yl)-2-methyl-1H-benzo[d]imidazole-4-carboxylic acid]
pIC50: 7.00 to 8.00

Cc1nc2c(C(=O)O)cc(-c3ccc(-n4c(C)ccc4C)cc3)cc2[nH]1 [Example 111, 6-(4-(2,5-dimethyl-1H-pyrrol-1-yl)phenyl)-2-methyl-1H-benzo[d]imidazole-4-carboxylic acid]
pIC50: 8.00 to 9.00

Cc1nc2c(C(=O)O)cc(-c3ccc(-c4ccccc4CN4CC[C@@H](F)C4)cc3)cc2[nH]1 [Example 117, (R)-6-(2'-((3-fluoropyrrolidin-1-yl)methyl)-[1,1'-biphenyl]-4-yl)-2-methyl-1H-benzo[d]imidazole-4-carboxylic acid.2,2,2-trifluoroacetic acid]
pIC50: 8.00 to 9.00
